Measurements taken from ChEMBL document CHEMBL4507284, “Data for DCP probe BI-1230” (2021).

Columns and labels:
[1] = target: Alpha-1A adrenergic receptor (Homo sapiens) (UniProt P35348); conditions: Compound concentration 10.0 uM
[2] = target: Homeodomain-interacting protein kinase 2 (Homo sapiens) (UniProt Q9H2X6); conditions: Compound concentration 1000.0 nM
[3] = target: Ephrin type-B receptor 3 (Homo sapiens) (UniProt P54753); conditions: Compound concentration 1000.0 nM
[4] = target: RAC-gamma serine/threonine-protein kinase (Homo sapiens) (UniProt Q9Y243); conditions: Compound concentration 1000.0 nM
[5] = target: Serine/threonine-protein kinase NIM1 (Homo sapiens) (UniProt Q8IY84); conditions: Compound concentration 1000.0 nM
[6] = target: Serine/threonine-protein kinase WNK2 (Homo sapiens) (UniProt Q9Y3S1); conditions: Compound concentration 1000.0 nM
[7] = target: Mitogen-activated protein kinase 4 (Homo sapiens) (UniProt P31152); conditions: Compound concentration 1000.0 nM
[8] = target: Misshapen-like kinase 1 (Homo sapiens) (UniProt Q8N4C8); conditions: Compound concentration 1000.0 nM
[9] = tested on: Epidermal growth factor receptor (Homo sapiens), P00533 [L861Q]; conditions: Compound concentration 1000.0 nM
[10] = target: Epidermal growth factor receptor (Homo sapiens) (UniProt P00533); conditions: Compound concentration 1000.0 nM
[11] = target: Phosphatidylinositol 3-kinase catalytic subunit type 3 (Homo sapiens) (UniProt Q8NEB9); conditions: Compound concentration 1000.0 nM
[12] = tested on: Tyrosine-protein kinase ABL1 (Homo sapiens), P00519 [F317I]; conditions: Compound concentration 1000.0 nM
[13] = target: Hepatocyte growth factor receptor (Homo sapiens) (UniProt P08581); conditions: Compound concentration 1000.0 nM
Sequence of Hepatocyte growth factor receptor (Homo sapiens) (P08581 whole entry): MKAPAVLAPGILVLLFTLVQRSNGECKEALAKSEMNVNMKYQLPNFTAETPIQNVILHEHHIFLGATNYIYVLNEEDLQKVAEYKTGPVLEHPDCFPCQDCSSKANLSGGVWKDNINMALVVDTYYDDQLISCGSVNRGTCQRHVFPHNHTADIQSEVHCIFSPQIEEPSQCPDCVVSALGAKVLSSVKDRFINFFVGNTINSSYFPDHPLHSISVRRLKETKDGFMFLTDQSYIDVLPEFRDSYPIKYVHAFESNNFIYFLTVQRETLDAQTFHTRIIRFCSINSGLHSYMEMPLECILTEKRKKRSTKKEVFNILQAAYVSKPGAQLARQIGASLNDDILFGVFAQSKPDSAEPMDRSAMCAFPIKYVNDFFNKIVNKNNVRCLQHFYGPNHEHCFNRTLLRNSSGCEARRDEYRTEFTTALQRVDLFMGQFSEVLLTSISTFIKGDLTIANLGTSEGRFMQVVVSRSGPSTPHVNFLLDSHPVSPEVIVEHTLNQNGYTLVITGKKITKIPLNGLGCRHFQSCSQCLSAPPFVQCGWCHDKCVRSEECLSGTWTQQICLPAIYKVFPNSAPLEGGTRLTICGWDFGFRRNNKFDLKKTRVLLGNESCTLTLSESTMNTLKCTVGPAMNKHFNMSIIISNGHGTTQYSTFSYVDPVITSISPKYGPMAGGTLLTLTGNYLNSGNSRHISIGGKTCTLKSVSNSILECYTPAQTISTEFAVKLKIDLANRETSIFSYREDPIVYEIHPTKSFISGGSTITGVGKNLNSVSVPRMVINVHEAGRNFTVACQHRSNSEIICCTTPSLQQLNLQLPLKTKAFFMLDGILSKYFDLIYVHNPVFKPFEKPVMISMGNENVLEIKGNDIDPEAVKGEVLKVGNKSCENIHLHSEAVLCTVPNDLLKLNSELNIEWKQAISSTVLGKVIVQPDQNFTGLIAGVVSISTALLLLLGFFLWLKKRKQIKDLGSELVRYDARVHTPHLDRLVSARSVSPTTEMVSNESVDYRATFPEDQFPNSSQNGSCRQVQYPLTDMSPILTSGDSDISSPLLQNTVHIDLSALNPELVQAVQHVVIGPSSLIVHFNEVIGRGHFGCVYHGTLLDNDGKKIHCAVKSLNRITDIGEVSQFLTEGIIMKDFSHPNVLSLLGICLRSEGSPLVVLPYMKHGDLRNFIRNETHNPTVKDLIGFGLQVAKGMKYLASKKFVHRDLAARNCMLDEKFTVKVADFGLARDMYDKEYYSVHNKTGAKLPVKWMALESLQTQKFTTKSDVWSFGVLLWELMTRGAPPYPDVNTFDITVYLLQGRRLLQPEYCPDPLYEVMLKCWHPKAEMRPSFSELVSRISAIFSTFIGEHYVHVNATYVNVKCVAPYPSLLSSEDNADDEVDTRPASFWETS

[14] = target: Dual specificity tyrosine-phosphorylation-regulated kinase 1A (Homo sapiens) (UniProt Q13627); conditions: Compound concentration 1000.0 nM
[15] = target: Serine/threonine-protein kinase 32C (Homo sapiens) (UniProt Q86UX6); conditions: Compound concentration 1000.0 nM
[16] = target: Phosphatidylinositol 4,5-bisphosphate 3-kinase catalytic subunit alpha isoform (Homo sapiens) (UniProt P42336); conditions: Compound concentration 1000.0 nM
[17] = target: Inhibitor of nuclear factor kappa-B kinase subunit beta (Homo sapiens) (UniProt O14920); conditions: Compound concentration 1000.0 nM
[18] = tested on: Tyrosine-protein kinase ABL1 (Homo sapiens), P00519 [Q252H]; conditions: Compound concentration 1000.0 nM
[19] = target: Death-associated protein kinase 2 (Homo sapiens) (UniProt Q9UIK4); conditions: Compound concentration 1000.0 nM
[20] = target: Tyrosine-protein kinase receptor Tie-1 (Homo sapiens) (UniProt P35590); conditions: Compound concentration 1000.0 nM
Sequence of Tyrosine-protein kinase receptor Tie-1 (Homo sapiens) (P35590 whole entry): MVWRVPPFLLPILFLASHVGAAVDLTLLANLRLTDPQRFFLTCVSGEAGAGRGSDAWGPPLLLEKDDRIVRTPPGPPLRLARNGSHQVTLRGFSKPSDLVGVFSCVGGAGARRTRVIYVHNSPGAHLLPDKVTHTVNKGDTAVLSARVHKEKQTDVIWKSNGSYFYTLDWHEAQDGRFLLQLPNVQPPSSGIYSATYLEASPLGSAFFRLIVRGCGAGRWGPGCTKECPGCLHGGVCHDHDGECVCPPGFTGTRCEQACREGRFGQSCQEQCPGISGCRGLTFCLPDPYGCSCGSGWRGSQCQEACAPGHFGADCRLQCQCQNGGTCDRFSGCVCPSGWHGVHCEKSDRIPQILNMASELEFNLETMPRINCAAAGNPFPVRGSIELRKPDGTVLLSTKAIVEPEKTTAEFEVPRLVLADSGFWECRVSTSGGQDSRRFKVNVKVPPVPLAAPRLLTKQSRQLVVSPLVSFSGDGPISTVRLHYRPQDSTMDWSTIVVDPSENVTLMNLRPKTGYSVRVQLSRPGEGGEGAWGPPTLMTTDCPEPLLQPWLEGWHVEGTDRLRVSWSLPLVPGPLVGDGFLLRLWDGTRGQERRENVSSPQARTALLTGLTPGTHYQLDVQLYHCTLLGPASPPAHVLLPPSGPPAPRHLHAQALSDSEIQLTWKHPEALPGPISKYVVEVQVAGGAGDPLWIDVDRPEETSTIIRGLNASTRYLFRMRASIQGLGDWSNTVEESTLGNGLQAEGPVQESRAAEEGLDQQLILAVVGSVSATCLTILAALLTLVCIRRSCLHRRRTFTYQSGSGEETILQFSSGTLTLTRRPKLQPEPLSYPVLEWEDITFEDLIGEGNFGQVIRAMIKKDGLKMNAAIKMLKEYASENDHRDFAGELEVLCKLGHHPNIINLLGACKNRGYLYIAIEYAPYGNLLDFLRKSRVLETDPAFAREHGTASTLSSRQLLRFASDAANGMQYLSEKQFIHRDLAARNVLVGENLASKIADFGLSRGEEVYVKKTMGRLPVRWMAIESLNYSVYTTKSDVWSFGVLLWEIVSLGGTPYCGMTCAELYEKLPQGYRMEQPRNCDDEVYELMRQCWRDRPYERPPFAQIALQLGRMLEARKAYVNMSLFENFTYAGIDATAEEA

[21] = target: Dual specificity mitogen-activated protein kinase kinase 6 (Homo sapiens) (UniProt P52564); conditions: Compound concentration 1000.0 nM
Sequence of Dual specificity mitogen-activated protein kinase kinase 6 (Homo sapiens) (P52564 whole entry): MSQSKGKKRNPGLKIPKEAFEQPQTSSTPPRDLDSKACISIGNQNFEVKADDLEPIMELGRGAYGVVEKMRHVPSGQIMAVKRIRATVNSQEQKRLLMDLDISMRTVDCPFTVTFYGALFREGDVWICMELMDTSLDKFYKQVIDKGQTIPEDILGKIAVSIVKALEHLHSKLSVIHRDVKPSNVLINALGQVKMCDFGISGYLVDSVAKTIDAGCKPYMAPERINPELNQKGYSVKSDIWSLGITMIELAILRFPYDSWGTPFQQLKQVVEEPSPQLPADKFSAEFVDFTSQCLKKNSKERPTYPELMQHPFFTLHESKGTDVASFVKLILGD

[22] = tested on: Tyrosine-protein kinase ABL1 (Homo sapiens), P00519 [T315I]; conditions: Compound concentration 1000.0 nM
[23] = target: Fibroblast growth factor receptor 2 (Homo sapiens) (UniProt P21802); conditions: Compound concentration 1000.0 nM
[24] = tested on: Epidermal growth factor receptor (Homo sapiens), P00533 [UNDEFINED MUTATION]; conditions: Compound concentration 1000.0 nM
[25] = target: Phosphatidylinositol 5-phosphate 4-kinase type-2 gamma (Homo sapiens) (UniProt Q8TBX8); conditions: Compound concentration 1000.0 nM
Sequence of Phosphatidylinositol 5-phosphate 4-kinase type-2 gamma (Homo sapiens) (Q8TBX8 whole entry): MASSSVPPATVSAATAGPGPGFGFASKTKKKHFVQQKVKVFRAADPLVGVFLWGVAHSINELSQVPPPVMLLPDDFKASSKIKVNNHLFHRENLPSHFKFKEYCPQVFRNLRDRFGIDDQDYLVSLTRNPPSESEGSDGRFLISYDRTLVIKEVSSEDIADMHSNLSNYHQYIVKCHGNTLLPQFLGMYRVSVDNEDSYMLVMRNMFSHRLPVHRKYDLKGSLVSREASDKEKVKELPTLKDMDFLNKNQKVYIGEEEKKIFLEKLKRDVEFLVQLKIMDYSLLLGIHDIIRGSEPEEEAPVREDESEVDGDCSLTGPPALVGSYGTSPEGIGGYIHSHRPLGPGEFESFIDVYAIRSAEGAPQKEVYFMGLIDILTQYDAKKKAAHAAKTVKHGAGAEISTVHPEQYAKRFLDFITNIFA

[26] = target: Dual specificity protein kinase TTK (Homo sapiens) (UniProt P33981); conditions: Compound concentration 1000.0 nM
Sequence of Dual specificity protein kinase TTK (Homo sapiens) (P33981 whole entry): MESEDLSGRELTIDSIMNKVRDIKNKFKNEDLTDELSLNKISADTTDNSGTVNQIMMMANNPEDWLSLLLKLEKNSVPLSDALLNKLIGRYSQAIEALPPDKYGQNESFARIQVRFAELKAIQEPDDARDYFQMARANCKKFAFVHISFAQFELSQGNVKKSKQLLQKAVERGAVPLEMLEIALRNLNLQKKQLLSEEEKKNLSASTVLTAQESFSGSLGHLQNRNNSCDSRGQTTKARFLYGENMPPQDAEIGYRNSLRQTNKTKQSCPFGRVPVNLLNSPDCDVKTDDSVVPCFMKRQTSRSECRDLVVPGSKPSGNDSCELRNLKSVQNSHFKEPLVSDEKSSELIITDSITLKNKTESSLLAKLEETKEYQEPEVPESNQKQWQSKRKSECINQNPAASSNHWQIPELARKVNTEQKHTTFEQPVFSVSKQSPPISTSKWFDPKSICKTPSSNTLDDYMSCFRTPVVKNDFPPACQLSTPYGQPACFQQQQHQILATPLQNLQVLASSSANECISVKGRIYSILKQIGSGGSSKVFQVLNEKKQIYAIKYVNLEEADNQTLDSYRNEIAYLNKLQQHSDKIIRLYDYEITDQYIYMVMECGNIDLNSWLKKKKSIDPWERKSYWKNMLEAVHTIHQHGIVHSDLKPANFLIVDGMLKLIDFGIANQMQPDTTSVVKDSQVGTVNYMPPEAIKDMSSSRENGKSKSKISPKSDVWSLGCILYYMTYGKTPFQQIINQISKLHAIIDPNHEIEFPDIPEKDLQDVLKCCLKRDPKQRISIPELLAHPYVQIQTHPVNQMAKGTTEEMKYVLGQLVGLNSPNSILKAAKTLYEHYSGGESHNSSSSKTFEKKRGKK

[27] = target: Serine/threonine-protein kinase haspin (Homo sapiens) (UniProt Q8TF76); conditions: Compound concentration 1000.0 nM
[28] = target: Dual specificity protein kinase CLK2 (Homo sapiens) (UniProt P49760); conditions: Compound concentration 1000.0 nM
[29] = target: Serine/threonine-protein kinase OSR1 (Homo sapiens) (UniProt O95747); conditions: Compound concentration 1000.0 nM
[30] = target: Serine/threonine-protein kinase PAK 6 (Homo sapiens) (UniProt Q9NQU5); conditions: Compound concentration 1000.0 nM
[31] = target: Serine/threonine-protein kinase MRCK gamma (Homo sapiens) (UniProt Q6DT37); conditions: Compound concentration 1000.0 nM
[32] = target: Serine/threonine-protein kinase MARK2 (Homo sapiens) (UniProt Q7KZI7); conditions: Compound concentration 1000.0 nM
[33] = target: Phosphorylase b kinase regulatory subunit alpha, liver isoform (Homo sapiens) (UniProt P46019); conditions: Compound concentration 1000.0 nM
[34] = target: Mitotic checkpoint serine/threonine-protein kinase BUB1 (Homo sapiens) (UniProt O43683); conditions: Compound concentration 1000.0 nM
[35] = target: Serine/threonine-protein kinase 38-like (Homo sapiens) (UniProt Q9Y2H1); conditions: Compound concentration 1000.0 nM
Sequence of Serine/threonine-protein kinase 38-like (Homo sapiens) (Q9Y2H1 2-464 limits assumed): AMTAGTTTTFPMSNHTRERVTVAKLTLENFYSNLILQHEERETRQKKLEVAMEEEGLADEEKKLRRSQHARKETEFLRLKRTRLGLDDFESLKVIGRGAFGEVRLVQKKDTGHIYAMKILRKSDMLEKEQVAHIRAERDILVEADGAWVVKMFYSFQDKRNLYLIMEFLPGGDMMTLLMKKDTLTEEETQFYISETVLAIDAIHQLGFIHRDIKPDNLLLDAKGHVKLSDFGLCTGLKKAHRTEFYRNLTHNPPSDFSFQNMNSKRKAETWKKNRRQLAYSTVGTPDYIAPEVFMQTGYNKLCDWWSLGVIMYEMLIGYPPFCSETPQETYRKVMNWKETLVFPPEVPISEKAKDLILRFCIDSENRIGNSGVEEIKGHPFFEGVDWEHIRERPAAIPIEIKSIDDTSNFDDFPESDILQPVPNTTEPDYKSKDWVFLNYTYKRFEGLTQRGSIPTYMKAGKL

[36] = target: Dual specificity mitogen-activated protein kinase kinase 1 (Homo sapiens) (UniProt Q02750); conditions: Compound concentration 1000.0 nM
[37] = target: Cyclin-dependent kinase 5 (Homo sapiens) (UniProt Q00535); conditions: Compound concentration 1000.0 nM
Sequence of Cyclin-dependent kinase 5 (Homo sapiens) (Q00535 whole entry, looked up): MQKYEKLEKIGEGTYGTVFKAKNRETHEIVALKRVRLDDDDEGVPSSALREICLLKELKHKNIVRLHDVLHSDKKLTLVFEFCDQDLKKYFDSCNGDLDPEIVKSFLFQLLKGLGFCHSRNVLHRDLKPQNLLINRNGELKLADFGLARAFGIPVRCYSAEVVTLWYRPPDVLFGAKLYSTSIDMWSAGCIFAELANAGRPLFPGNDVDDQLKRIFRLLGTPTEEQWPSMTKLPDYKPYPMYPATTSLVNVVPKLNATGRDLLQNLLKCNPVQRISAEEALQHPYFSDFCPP

[38] = target: Muscarinic acetylcholine receptor M2 (Homo sapiens) (UniProt P08172); conditions: Compound concentration 10.0 uM
[39] = tested on: Epidermal growth factor receptor (Homo sapiens), P00533 [UNDEFINED MUTATION]; conditions: Compound concentration 1000.0 nM; remark: listed apart in the source
[40] = target: Proto-oncogene tyrosine-protein kinase ROS (Homo sapiens) (UniProt P08922); conditions: Compound concentration 1000.0 nM
[41] = target: Serine/threonine-protein kinase BRSK1 (Homo sapiens) (UniProt Q8TDC3); conditions: Compound concentration 1000.0 nM
[42] = target: Serine/threonine-protein kinase 17B (Homo sapiens) (UniProt O94768); conditions: Compound concentration 1000.0 nM
[43] = target: Cyclin-dependent kinase 19 (Homo sapiens) (UniProt Q9BWU1); conditions: Compound concentration 1000.0 nM
[44] = target: Serine/threonine-protein kinase Nek9 (Homo sapiens) (UniProt Q8TD19); conditions: Compound concentration 1000.0 nM
[45] = target: Casein kinase II subunit alpha' (Homo sapiens) (UniProt P19784); conditions: Compound concentration 1000.0 nM

COc1ccc2c(O[C@@H]3C[C@H]4C(=O)N[C@]5(C(=O)O)CC5/C=C\CCCCC[C@H](NC(=O)OC5CCCC5)C(=O)N4C3)cc(-c3csc(NC(=O)C(C)C)n3)nc2c1C (stereo not given in full) [BI 1230]
inhibition [1]: 1.41%
residual activity [2]: 68%
residual activity [3]: 100%
residual activity [4]: 93%
residual activity [5]: 83%
residual activity [6]: 87%
residual activity [7]: 93%
residual activity [8]: 62%
residual activity [9]: 100%
residual activity [10]: 92%
residual activity [11]: 100%
residual activity [12]: 90%
residual activity [13]: 99%
residual activity [14]: 79%
residual activity [15]: 63%
residual activity [16]: 75%
residual activity [17]: 83%
residual activity [18]: 70%
residual activity [19]: 100%
residual activity [20]: 100%
residual activity [21]: 100%
residual activity [22]: 92%
residual activity [23]: 96%
residual activity [24]: 98%
residual activity [25]: 89%
residual activity [26]: 100%
residual activity [27]: 97%
residual activity [28]: 100%
residual activity [29]: 82%
residual activity [30]: 100%
residual activity [31]: 100%
residual activity [32]: 100%
residual activity [33]: 100%
residual activity [34]: 96%
residual activity [35]: 43%
residual activity [36]: 85%
residual activity [37]: 97%
inhibition [38]: 3.22%
residual activity [39]: 98%
residual activity [40]: 100%
residual activity [41]: 85%
residual activity [42]: 88%
residual activity [43]: 90%
residual activity [44]: 100%
residual activity [45]: 100%

O=C(N[C@H]1CCCCC/C=C\C2C[C@@]2(C(=O)O)NC(=O)[C@@H]2C[C@@H](Oc3ccncc3)CN2C1=O)OC1CCCC1 (stereo not given in full) [BI 1675]
inhibition [1]: 25.7%
residual activity [2]: 100%
residual activity [3]: 100%
residual activity [4]: 94%
residual activity [5]: 82%
residual activity [6]: 100%
residual activity [7]: 100%
residual activity [8]: 100%
residual activity [9]: 100%
residual activity [10]: 99%
residual activity [11]: 100%
residual activity [12]: 100%
residual activity [13]: 60%
residual activity [14]: 84%
residual activity [15]: 100%
residual activity [16]: 98%
residual activity [17]: 91%
residual activity [18]: 65%
residual activity [19]: 100%
residual activity [20]: 100%
residual activity [21]: 94%
residual activity [22]: 100%
residual activity [23]: 79%
residual activity [24]: 100%
residual activity [25]: 100%
residual activity [26]: 79%
residual activity [27]: 100%
residual activity [28]: 100%
residual activity [29]: 75%
residual activity [30]: 100%
residual activity [31]: 90%
residual activity [32]: 81%
residual activity [33]: 100%
residual activity [34]: 100%
residual activity [35]: 80%
residual activity [36]: 92%
residual activity [37]: 77%
inhibition [38]: -1.71%
residual activity [39]: 78%
residual activity [40]: 92%
residual activity [41]: 80%
residual activity [42]: 69%
residual activity [43]: 91%
residual activity [44]: 100%
residual activity [45]: 100%
